Like-named read-outs stand apart in the source and are kept apart here. No end group written: not given here.
Experiments:
Test in all cases: biochemical
Type in all cases: binding
HLA-DR DRB1*0301 (DR3) = HLA-DR DRB1*0301 (DR3) (Homo sapiens, UniProt P01903+P01911, A100K/A102G/A103R/A169T/F55Y/I96L/K41T/L162R/M171V/P40S/Q125H/Q178H/Q39Y/R42S/S66N/T106N/T262R/W38E/Y61H); details: read-out: DRB1 *0301
HLA-DR DRB1*0405 (DR4) = HLA-DR DRB1*0405 (DR4) (Homo sapiens, UniProt P01903+P01911, A100R/A169T/D86S/F76Y/I96L/K127E/L162R/M171V/N62H/P40V/Q125Y/R42H/S133A/S149N/S66Y/V115G/V209L/W38E)
HLA-DR DRB1*0101 (DR1) = HLA-DR DRB1*0101 (DR1) (Homo sapiens, UniProt P01903+P01911, A100R/D57E/F55L/F60I/F76Y/I96L/L162R/M171V/P40L/Q125E/R42F/V115G/Y59C)
HLA-DR DRB1*0701 (DR7) = HLA-DR DRB1*0701 (DR7) (Homo sapiens, UniProt P01903+P01911, A100R/A102G/A103Q/D57E/D86V/E43K/F76Y/K127E/L162R/M171V/P40G/Q125H/Q99D/R33Q/R42Y/R54Q/S133A/S66F/T210M/V115G/Y107V/Y59L/Y89S)
HLA-DR DRB1*0901 (DR9) = HLA-DR DRB1*0901 (DR9) (Homo sapiens, UniProt P01903+P01911, A100R/A103E/D57H/D86V/F55Y/F60I/F76Y/I96F/K127E/L162R/M171V/P40D/Q125H/Q99R/R33Q/R42F/S133A/S66N/T210M/V115G/W38K/Y107V/Y59G/Y89S)
HLA-DR DRB1*0401 (DR4) = HLA-DR DRB1*0401 (DR4) (Homo sapiens, UniProt P01903+P01911, A100K/A169T/F76Y/I96L/K127E/L162R/M171V/N62H/P40V/Q125Y/R42H/S133A/S149N/S66Y/V115G/V209L/W38E)
HLA-DR DRB1*1501 (DR15) = HLA-DR DRB1*1501 (DR15) (Homo sapiens, UniProt P01903+P01911); details: DRBI *1501
HLA-DR DRB4*0101 (DR53) = HLA-DR DRB4*0101 (DR53) (Homo sapiens, UniProt P01903+P13762, G164S); details: DRB4 *0101
HLA-DR DRB1*1302 (DR13) = HLA-DR DRB1*1302 (DR13) (Homo sapiens, UniProt P01903+P01911, A100E/A169T/K41T/L162R/M171V/P40S/Q125H/Q178H/Q39Y/Q99D/R42S/S66N/T262R/V115G/W38E/Y61H); details: DRBI *1302
Chain of HLA-DR DRB1*1302 (DR13) (P01903 26-254 limits assumed, other chains not shown): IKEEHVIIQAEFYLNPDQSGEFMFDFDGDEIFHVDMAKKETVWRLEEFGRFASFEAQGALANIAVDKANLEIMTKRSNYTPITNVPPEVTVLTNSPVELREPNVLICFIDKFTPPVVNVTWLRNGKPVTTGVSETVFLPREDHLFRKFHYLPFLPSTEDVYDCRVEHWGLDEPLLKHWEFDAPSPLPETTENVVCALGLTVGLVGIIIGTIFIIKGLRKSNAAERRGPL

HLA-DR DRB1*1101 (DR11) = HLA-DR DRB1*1101 (DR11) (Homo sapiens, UniProt P01903+P01911, A100R/A169T/A87E/I96F/K41T/L162R/M171V/P40S/Q125H/Q178H/Q39Y/Q99D/R42S/S66Y/T262R/V115G/W38E); details: DRB1 *1101
Chain of HLA-DR DRB1*1101 (DR11) (P01903 26-254 limits assumed, other chains not shown): as above

HLA-DR DRB5*0101 (DR51) = HLA-DR DRB5*0101 (DR51) (Homo sapiens, UniProt P01903+Q30154); details: DRB5 *0101

Chain of HLA-DR DRB1*0301 (DR3) (P01903 26-254 limits assumed, other chains not shown): as above

| Sequence | IC50 (HLA-DR DRB1*0301 (DR3)) | IC50 (HLA-DR DRB1*0405 (DR4); read-out: DRB1 *0405) | IC50 (HLA-DR DRB1*0101 (DR1); read-out: DRB1 *0101) | IC50 (HLA-DR DRB1*0701 (DR7); read-out: DRB1 *0701) | IC50 (HLA-DR DRB1*0901 (DR9); read-out: DRB1 *0901) | IC50 (HLA-DR DRB1*0401 (DR4); read-out: DRB1 *0401) | IC50 (HLA-DR DRB1*1501 (DR15)) | IC50 (HLA-DR DRB1*0405 (DR4); DRB1 *0405) | IC50 (HLA-DR DRB1*0101 (DR1); DRB1 *0101) | IC50 (HLA-DR DRB4*0101 (DR53)) | IC50 (HLA-DR DRB1*0701 (DR7); DRB1 *0701) | IC50 (HLA-DR DRB1*0901 (DR9); DRB1 *0901) | IC50 (HLA-DR DRB1*1302 (DR13)) | IC50 (HLA-DR DRB1*1101 (DR11)) | IC50 (HLA-DR DRB1*0401 (DR4); DRB1 *0401) | IC50 (HLA-DR DRB5*0101 (DR51)) |
| --- | --- | --- | --- | --- | --- | --- | --- | --- | --- | --- | --- | --- | --- | --- | --- | --- |
| LTIVYRDDTPHGVCT | 187 nM | > 8590 nM | > 15400 nM | > 72300 nM | > 25300 nM | 23 nM |  |  |  |  |  |  |  |  |  |  |
| MLDLQPETTDLYCYE | 720 nM | 4250 nM |  | > 72300 nM | > 32200 nM | 1910 nM |  |  |  |  |  |  |  |  |  |  |
| QDYVLDLQPEATDLH |  |  |  |  |  |  | > 62800 nM | 5590 nM | 13400 nM | 1850 nM | > 18600 nM | > 39900 nM | > 11500 nM | > 11900 nM | 253 nM | > 22900 nM |
| RETLQEIVLHLEPQN |  |  |  |  |  |  | 16200 nM | 829 nM | 1590 nM | 95 nM | 25900 nM | 19100 nM | 11400 nM | 7900 nM | 2940 nM | > 55100 nM |
| REVYKFLFTDLRIVY |  |  |  |  |  |  | 258 nM | 52 nM | 8.7 nM | 203 nM | 54 nM | 204 nM | 80 nM | 2260 nM |  | 155 nM |
| RLFDNAMLRAHRL | 27 nM | 4250 nM | 2.3 nM | 3300 nM | > 59500 nM | 6290 nM |  |  |  |  |  |  |  |  |  |  |
| TIVYRDDTPHGVCTK |  |  |  |  |  |  | 5450 nM | > 9750 nM | 3800 nM | > 21500 nM | > 35600 nM | > 39100 nM | 6280 nM | > 18000 nM |  | > 62300 nM |
| VYDFVFADLRIVYRD | 2.2 nM | 717 nM | 98 nM |  | 198 nM | 475 nM |  |  |  |  |  |  |  |  |  |  |
